Measurements as given in the CheMixHub viscosity set.

Test: xn = mol fraction of the nth substance listed

C=COC(C)=O + CCCCO
303.15 K, 101.33 kPa
Conditions	viscosity [mPa·s]
x1 = 0.1008	1.622
x1 = 0.1999	1.211
x1 = 0.3008	0.944
x1 = 0.3993	0.768
x1 = 0.5055	0.634
x1 = 0.6002	0.547
x1 = 0.6998	0.482
x1 = 0.7997	0.433
x1 = 0.8749	0.405

CC(C)c1ccccc1 + CCCCO
viscosity [mPa·s], 101 kPa
Conditions	298.15 K	303.15 K	308.15 K	313.15 K	318.15 K	323.15 K
x1 = 0.0989	2.069	–	1.657	–	–	–
x1 = 0.1844	1.723	–	1.398	–	–	–
x1 = 0.2877	1.417	–	1.135	–	–	–
x1 = 0.3941	1.188	–	0.9456	–	–	–
x1 = 0.5189	1.001	–	0.8025	–	–	–
x1 = 0.6544	0.8693	–	0.7291	–	–	–
x1 = 0.796	0.7776	–	0.7157	–	–	–
x2 = 0.1001	–	0.6982	0.6545	0.6143	0.5795	0.5481
x2 = 0.1998	–	0.7295	0.6815	0.6366	0.5969	0.5613
x2 = 0.3007	–	0.7788	0.7225	0.6725	0.6285	0.5885
x2 = 0.3997	–	0.8423	0.7784	0.7209	0.6696	0.6249
x2 = 0.4999	–	0.9355	0.8588	0.7901	0.7288	0.6767
x2 = 0.6	–	1.068	0.9725	0.8867	0.8131	0.7485
x2 = 0.6992	–	1.252	1.129	1.022	0.9275	0.848
x2 = 0.7999	–	1.474	1.323	1.187	1.068	0.9682
x2 = 0.9006	–	1.837	1.629	1.452	1.298	1.168

CCCCOC(C)=O + CCCCO
viscosity [mPa·s], 101 kPa
Conditions	x1 = 0.1	x1 = 0.1944	x1 = 0.2974	x1 = 0.3991	x1 = 0.4988	x1 = 0.6008	x1 = 0.6913	x1 = 0.7961	x1 = 0.8993
298.15 K	2.212	1.921	1.641	1.407	1.212	1.041	0.923	0.813	0.727
303.15 K	1.962	1.713	1.475	1.262	1.091	0.948	0.839	0.755	0.688
308.15 K	1.75	1.532	1.31	1.146	0.993	0.876	0.789	0.703	0.646
313.15 K	1.558	1.365	1.184	1.037	0.908	0.806	0.731	0.662	0.619

CCCN + CCCCO
Conditions	viscosity [mPa·s]
298.15 K, 100 kPa, x2 = 0.0488	0.3946
298.15 K, 100 kPa, x2 = 0.0977	0.4367
298.15 K, 100 kPa, x2 = 0.2026	0.552
298.15 K, 100 kPa, x2 = 0.2966	0.6772
298.15 K, 100 kPa, x2 = 0.4	0.8384
298.15 K, 100 kPa, x2 = 0.4939	1.003
298.15 K, 100 kPa, x2 = 0.58	1.166
298.15 K, 100 kPa, x2 = 0.645	1.305
298.15 K, 100 kPa, x2 = 0.7024	1.45
298.15 K, 100 kPa, x2 = 0.7958	1.721
298.15 K, 100 kPa, x2 = 0.9025	2.113
303.15 K, 101 kPa, x1 = 0.01186	2.214
303.15 K, 101 kPa, x1 = 0.02208	2.185
303.15 K, 101 kPa, x1 = 0.03071	2.16
303.15 K, 101 kPa, x1 = 0.04153	2.133
303.15 K, 101 kPa, x1 = 0.04894	2.113
303.15 K, 101 kPa, x1 = 0.06228	2.083
303.15 K, 101 kPa, x1 = 0.07291	2.053
303.15 K, 101 kPa, x1 = 0.07608	2.038
303.15 K, 101 kPa, x1 = 0.08641	2.013
303.15 K, 101.33 kPa, x1 = 0.0967	2.02
303.15 K, 101.33 kPa, x1 = 0.186	1.771
303.15 K, 101.33 kPa, x1 = 0.2863	1.501
303.15 K, 101.33 kPa, x1 = 0.4131	1.177
303.15 K, 101.33 kPa, x1 = 0.514	0.9669
303.15 K, 101.33 kPa, x1 = 0.6196	0.7833
303.15 K, 101.33 kPa, x1 = 0.7178	0.6396
303.15 K, 101.33 kPa, x1 = 0.8121	0.5233
303.15 K, 101.33 kPa, x1 = 0.9017	0.433
313.15 K, 101.33 kPa, x1 = 0.0967	1.617
313.15 K, 101.33 kPa, x1 = 0.186	1.427
313.15 K, 101.33 kPa, x1 = 0.2863	1.218
313.15 K, 101.33 kPa, x1 = 0.4131	0.9675
313.15 K, 101.33 kPa, x1 = 0.514	0.7924
313.15 K, 101.33 kPa, x1 = 0.6196	0.6548
313.15 K, 101.33 kPa, x1 = 0.7178	0.5412
313.15 K, 101.33 kPa, x1 = 0.8121	0.4506
313.15 K, 101.33 kPa, x1 = 0.9017	0.3783

Oc1ccccc1Cl + CCCCOCCO
viscosity [mPa·s], 101 kPa
Conditions	x1 = 0.1256	x1 = 0.2442	x1 = 0.3565	x1 = 0.4628	x1 = 0.5638	x1 = 0.6597	x1 = 0.751	x1 = 0.8379	x1 = 0.9208
303.15 K	3.306	4.125	4.745	5.08	5.13	4.92	4.5	3.975	3.396
308.15 K	2.934	3.49	3.876	4.084	4.093	3.935	3.654	3.302	2.895
313.15 K	2.604	2.992	3.267	3.404	3.405	3.298	3.106	2.847	2.563
318.15 K	2.282	2.554	2.738	2.82	2.833	2.754	2.624	2.45	2.254

CCCN + CCCCOCCOCCO
298.15 K, 101 kPa
Conditions	viscosity [mPa·s]
x2 = 0.0104	0.381
x2 = 0.0212	0.404
x2 = 0.0381	0.44
x2 = 0.0898	0.562
x2 = 0.1063	0.602
x2 = 0.129	0.668
x2 = 0.164	0.78
x2 = 0.1944	0.884
x2 = 0.2231	1.003
x2 = 0.2623	1.178
x2 = 0.3079	1.4
x2 = 0.327	1.505
x2 = 0.3856	1.851
x2 = 0.4114	2.011
x2 = 0.4443	2.23
x2 = 0.4782	2.46
x2 = 0.5424	2.9
x2 = 0.5729	3.115
x2 = 0.6163	3.404
x2 = 0.6419	3.571
x2 = 0.6779	3.79
x2 = 0.7205	4.031
x2 = 0.7508	4.193
x2 = 0.7957	4.402
x2 = 0.8278	4.535
x2 = 0.8577	4.647
x2 = 0.8744	4.703
x2 = 0.9181	4.837
x2 = 0.9513	4.925
x2 = 0.9752	4.986

CC(C)c1ccccc1 + CCCO
viscosity [mPa·s], 101 kPa
Conditions	298.15 K	303.15 K	308.15 K	313.15 K	318.15 K	323.15 K
x1 = 0.013	1.976	–	1.523	–	–	–
x1 = 0.0796	1.683	–	1.334	–	–	–
x1 = 0.1684	1.406	–	1.14	–	–	–
x1 = 0.2504	1.236	–	1.011	–	–	–
x1 = 0.3462	1.092	–	0.896	–	–	–
x1 = 0.4697	0.956	–	0.791	–	–	–
x1 = 0.5994	0.854	–	0.712	–	–	–
x1 = 0.7565	0.756	–	0.657	–	–	–
x2 = 0.0996	–	0.6838	0.6412	0.602	0.5678	0.5436
x2 = 0.1997	–	0.6995	0.6529	0.612	0.5746	0.54
x2 = 0.2988	–	0.7297	0.6794	0.6333	0.592	0.5542
x2 = 0.4008	–	0.7751	0.7176	0.6661	0.6202	0.5777
x2 = 0.5012	–	0.8411	0.7731	0.7142	0.6612	0.6129
x2 = 0.6002	–	0.9284	0.847	0.7762	0.7145	0.6596
x2 = 0.7002	–	1.046	0.9475	0.8652	0.7897	0.7201
x2 = 0.8	–	1.205	1.086	0.982	0.8912	0.81
x2 = 0.8991	–	1.426	1.275	1.146	1.033	0.9322

CCCCOC(C)=O + CCCO
viscosity [mPa·s], 101 kPa
Conditions	298.15 K	303.15 K	308.15 K	313.15 K
x1 = 0.0995	1.689	1.479	1.311	1.19
x1 = 0.1003	–	1.296	–	–
x1 = 0.198	–	1.062	–	–
x1 = 0.1987	1.483	1.293	1.148	1.048
x1 = 0.2976	1.308	1.148	1.025	0.942
x1 = 0.3002	–	0.912	–	–
x1 = 0.4004	–	0.821	–	–
x1 = 0.4009	1.151	1.011	0.915	0.848
x1 = 0.4989	1.023	0.903	0.822	0.77
x1 = 0.5001	–	0.755	–	–
x1 = 0.5969	0.921	0.836	0.76	0.713
x1 = 0.6002	–	0.705	–	–
x1 = 0.6993	0.833	0.766	0.7	0.67
x1 = 0.7001	–	0.674	–	–
x1 = 0.7999	–	0.654	–	–
x1 = 0.8008	0.767	0.717	0.666	0.631
x1 = 0.8932	0.717	0.68	0.636	0.61
x1 = 0.9002	–	0.641	–	–

CCCN + CCCO
Conditions	viscosity [mPa·s]
298.15 K, 100 kPa, x2 = 0.0523	0.3938
298.15 K, 100 kPa, x2 = 0.1008	0.4276
298.15 K, 100 kPa, x2 = 0.2001	0.5072
298.15 K, 100 kPa, x2 = 0.2985	0.6113
298.15 K, 100 kPa, x2 = 0.3979	0.7332
298.15 K, 100 kPa, x2 = 0.5037	0.864
298.15 K, 100 kPa, x2 = 0.5989	1.002
298.15 K, 100 kPa, x2 = 0.7015	1.186
298.15 K, 100 kPa, x2 = 0.7962	1.378
298.15 K, 100 kPa, x2 = 0.9032	1.671
298.15 K, 100 kPa, x2 = 0.9626	1.843
303.15 K, 101.33 kPa, x1 = 0.0903	1.559
303.15 K, 101.33 kPa, x1 = 0.1862	1.343
303.15 K, 101.33 kPa, x1 = 0.2822	1.157
303.15 K, 101.33 kPa, x1 = 0.3807	0.9888
303.15 K, 101.33 kPa, x1 = 0.4868	0.8381
303.15 K, 101.33 kPa, x1 = 0.5804	0.7151
303.15 K, 101.33 kPa, x1 = 0.6878	0.596
303.15 K, 101.33 kPa, x1 = 0.7825	0.5123
303.15 K, 101.33 kPa, x1 = 0.901	0.417
313.15 K, 101.33 kPa, x1 = 0.0903	1.255
313.15 K, 101.33 kPa, x1 = 0.1862	1.096
313.15 K, 101.33 kPa, x1 = 0.2822	0.9516
313.15 K, 101.33 kPa, x1 = 0.3807	0.8187
313.15 K, 101.33 kPa, x1 = 0.4868	0.6961
313.15 K, 101.33 kPa, x1 = 0.5804	0.6034
313.15 K, 101.33 kPa, x1 = 0.6878	0.5101
313.15 K, 101.33 kPa, x1 = 0.7825	0.4401
313.15 K, 101.33 kPa, x1 = 0.901	0.3655

Oc1ccccc1Cl + CCN(CC)CC
298 K, 101.33 kPa
Conditions	viscosity [mPa·s]
x1 = 0.074	0.447
x1 = 0.305	1.41
x1 = 0.408	3.58
x1 = 0.473	7.81
x1 = 0.552	26.2
x1 = 0.616	109
x1 = 0.65	255
x1 = 0.703	529
x1 = 0.72	594
x1 = 0.751	451
x1 = 0.769	343
x1 = 0.797	213
x1 = 0.843	68.9
x1 = 0.87	34.3
x1 = 0.901	18.3
x1 = 0.956	5.91
